One test concerns the target SARS-CoV-2 RdRp (Severe acute respiratory syndrome coronavirus 2, UniProt P0DTD1). Briefly: cell-based. It is filed as cell-based. The conditions noted are these: for Effect on SARS-CoV-2 RdRp activity: without nsp7 and nsp8; for inhibition at 100 µM: read-out: Inhibition % of RdRp Activity at Max. Dose; for FLuc activity (internal control): compound at the indicated concentrations.

The subject of test [1] is SARS-CoV-2 RdRp with nsp7 and nsp8. It is filed as cell-based. The conditions noted are these: nsp7 + nsp8 or nsp8-IRES-nsp7 plasmids co-transfected, HEK293T.
Another test deals with SARS-CoV-2. The conditions noted are these: cited from earlier work.
Where [2] appears, read: […], mean ± standard error of the mean, read-out: IC50 of SARS-CoV-2 RdRp activity.
Where [3] appears, read: representative experiment, non-linear regression graph, HEK293T, 15 h, read-out: IC50 of SARS-CoV-2 RdRp activity in the figure.
The mark [4] stands for this setting: IC50 of SARS-CoV-2 RdRp activity.
[5] abbreviates: HEK-293T, max. dose 100 μM, HEK293T, 15 h.

Where a name gives a salt, the structure may show the parent alone. Read-outs that look alike come from different tables or passages of the source. Bounds are passed on as bounds.

Turning to `CC(C)(C)C(=O)OCOP(=O)(COCCn1cnc2c(N)ncnc21)OCOC(=O)C(C)(C)C` [Adefovir Dipivoxil, adefovir dipivoxil], the 50% inhibitory concentration (IC50) at SARS-CoV-2 RdRp (setting [2]) is 3.78 ± 0.866 µM; on SARS-CoV-2 RdRp (setting [3]), 3.92 µM.
For `COc1ccc2cc1Oc1ccc(cc1)C[C@H]1c3c(cc4c(c3Oc3cc5c(cc3OC)CCN(C)[C@@H]5C2)OCO4)CCN1C` [Cepharanthine, cepharanthine], the inhibition at 10 µM at SARS-CoV-2 RdRp (HEK-293T, max. dose 10 μM, HEK293T, 15 h) turned out to be 5.84%. Moreover, at SARS-CoV-2 RdRp (setting [4]), the half-maximal inhibitory concentration (IC50) is more than 10 µM. Moreover, the “Effect on SARS-CoV-2 RdRp activity” value is reported as “did not affect” at SARS-CoV-2 RdRp (HEK293T) and “did not display any inhibitory effect” at SARS-CoV-2 RdRp (HEK293T, listed as cepharanthine). In addition, the “Effect on SARS-CoV-2 RdRp activity with nsp7 and nsp8” value is recorded as “did not affect” in test [1] and “did not display any inhibitory effect” in test [1] (listed as cepharanthine).
For `Nc1nc(=O)n([C@@H]2CS[C@H](CO)O2)cc1F` [Emtricitabine, emtricitabine], the inhibition at 100 µM at SARS-CoV-2 RdRp (HEK-293T) was found to be 88.2%. Further, the 50% inhibitory concentration (IC50) was found to be 15.4 ± 3.6 µM against SARS-CoV-2 RdRp (setting [4]) and 13.8 µM at SARS-CoV-2 RdRp (IC50 of SARS-CoV-2 RdRp activity in the figure).
As to `C=C1[C@H](CO)[C@@H](O)C[C@@H]1n1cnc2c(=O)[nH]c(N)nc21` [Entecavir Hydrate, entecavir hydrate], on SARS-CoV-2 RdRp (setting [5]), the inhibition at 100 µM was determined as 83.1%.
For the molecule `Cl.O[C@H]1[C@H]2c3cc4c(cc3CN3CCC(=C[C@@H]1O)[C@H]23)OCO4` [Lycorine, lycorine hydrochloride], the “FLuc activity (internal control)” value at SARS-CoV-2 RdRp (HEK293T) is “remained unchanged”. Moreover, the IC50 on SARS-CoV-2 RdRp (setting [2]) is 1.47 ± 0.033 µM; on SARS-CoV-2 RdRp (setting [3]), 1.34 µM; in the test with SARS-CoV-2, 878 ± 22 nM.
Consider `N=C(N)/N=C(\N)N1CCOCC1` [Moroxydine, moroxydine HCl], for which, on SARS-CoV-2 RdRp (setting [5]), the inhibition at 100 µM was 76.5%. In addition, the half-inhibitory concentration (IC50) on SARS-CoV-2 RdRp (setting [2]) came to 48.9 ± 14.4 µM; at SARS-CoV-2 RdRp (setting [3]), 37.1 µM.
Consider `CCC(CC)COC(=O)[C@H](C)N[P@](=O)(OC[C@H]1O[C@@](C#N)(c2ccc3c(N)ncnn23)[C@H](O)[C@@H]1O)Oc1ccccc1` [Remdesivir], for which the “FLuc activity (internal control)” value on SARS-CoV-2 RdRp (HEK293T) is “maintained”. The inhibition at 6.7 µM on SARS-CoV-2 RdRp (HEK-293T, max. dose 6.7 μM, HEK293T, 15 h) turned out to be 71%.
Regarding `CO[C@H]1/C=C/O[C@@]2(C)Oc3c(C)c(O)c4c(O)c(c(/C=N/N5CCN(C)CC5)c(O)c4c3C2=O)NC(=O)/C(C)=C\C=C\[C@H](C)[C@H](O)[C@@H](C)[C@@H](O)[C@@H](C)[C@H](OC(C)=O)[C@@H]1C` [Rifampin, rifampin], the IC50 was 49.4 ± 4.02 µM at SARS-CoV-2 RdRp (setting [2]) and 30.3 µM on SARS-CoV-2 RdRp (setting [3]).
As for `Cc1cn([C@@H]2C[C@@H](O)[C@H](CO)O2)c(=O)[nH]c1=O` [Telbivudine, telbivudine], the inhibition at 100 µM at SARS-CoV-2 RdRp (setting [5]) stood at 76.9%. Also, the IC50 on SARS-CoV-2 RdRp (setting [2]) was determined as 45.9 ± 3.86 µM; on SARS-CoV-2 RdRp (setting [3]) it was 39.6 µM.

The values are drawn from publication PMC8392292 (Biomedicines, 2021).
